# Laboratory results reported in the NIST ThermoML archive (doi:10.1016/j.jct.2008.08.013).
# Numbers after ± are expanded uncertainties.
# Settings: 101.33 kPa, Liquid, Vibrating tube method
SMILES,mass density (288.15 K) [kg/m3],mass density (293.15 K) [kg/m3],mass density (298.15 K) [kg/m3],mass density (303.15 K) [kg/m3]
Nc1ccccc1 [aniline],1025.93 ± 0.1,1021.04 ± 0.09,1017.1 ± 0.09,1012.84 ± 0.09
ClCCl [dichloromethane],1334.81 ± 0.18,1325.67 ± 0.18,1316.58 ± 0.17,1307.9 ± 0.17
O=[N+]([O-])c1ccccc1 [nitrobenzene],1211.53 ± 0.13,1202.61 ± 0.13,1198.01 ± 0.12,1193.5 ± 0.12
